{"source": "patent US12343319B2", "about": "“Compositions and methods for treatment of diseases and disorders” (Atai Therapeutics Inc., priority 2023, dated 2025)", "key": {"Male WKY rats": {"system": "Male WKY rats", "assay": "Sleep-wake behavior, EEG power, body temperature and locomotor activity in WKY rats", "type": "in vivo, rat", "experimental": "Male WKY rats (n=7, 289-388 g at the start of dosing) were housed in groups of 2-3 animals per cage with standard housing conditions. For implantation of the EEG electrodes and radio transmitter, the animals were anesthetized with isoflurane (2-5% in oxygen at 11/min) throughout the procedure. The scalp, neck and right flank were cleared of hair using clippers and cleaned using diluted Hibitane (chlorhexidine, 50% (v/v) in water). A non-steroidal anti-inflammatory agent was administered (carprofen 5 mg/kg, s.c.) and the animals placed on a homeothermic blanket (37° C.) with the head fixed in a stereotaxic frame. Incisions were made in the scalp and neck, as well as in the right flank. Blunt dissection of the abdominal muscle was then made to gain access to the peritoneal cavity. A radio transmitter (HD-S02, Data Sciences International) was implanted in the peritoneal cavity and secured to the muscle wall with non-absorbable sutures. The wires of the transmitter were passed using a 19G needle through the muscle wall and then sub-dermally to the scalp to act as Electroencephalogram (EEG)/Electromyograph (EMG) electrodes. The scalp was cleared of connective tissue and two craniotomies were made with a trepanning drill (fronto-parietal coordinates; Bregma+2 mm anterior, midline+1.0 mm lateral and Lambda 0 mm, +1.5 mm lateral). The positive EEG electrode was attached to the anterior craniotomy and the negative EEG electrode to the posterior craniotomy. Both electrodes were secured in place using a suitable adhesive agent (cyanoacrylate gel, RS components). A second set of electrodes were sutured into the nuchal muscle to act as EMG electrodes. All incisions were closed using absorbable suture.\nAll animals were allowed to recover in a warm environment and given 5 ml of saline subcutaneously (s.c.). Animals were kept singly in the cage until the next day, then pair housed for the duration of post-surgical recovery (minimum 7 days). During the recovery period, the rats received 5 days of standard post-operative care with no further experimental procedures until the pre-operative body weight was regained. The animals were maintained on a 12/12 hour light dark cycle (08:00 am lights on) after the surgery. Home cages and post-operative cages contained bedding and nesting material, along with environmental enrichment such as wooden chew-sticks and plastic tunnels.\nOn test days, ˜60 minutes after lights-on, animals were placed in recording boxes similar to their home-cages, except that environmental enrichment was restricted to a large bundle of nesting and bedding material, to avoid interference with the telemeter signals. Then, data acquisition was initiated for confirmation of signal quality. EEG and EMG data were acquired using intraperitoneal HD-S02 transmitters (DSI, New Brighton, MN) and Spike2 software (CED). EEG and EMG signals were digitized 500 samples/second, amplified 1000× and bandpass filtered at 0.5-100 Hertz (Hz). After 60 minutes of habituation, each animal was briefly removed from its box and dosed via the intraperitoneal (i.p.) route in a volume of 2 mL/kg. Test conditions included saline vehicle, psilocybin (10 mg/kg) positive control, compound 2-1 at 3, 10 and 30 mg/kg and compound 2-2 at 10, 17 and 30 mg/kg. Doses were based on the molecular weight of the free bases. compound 2-1 and compound 2-2 dosing solutions were prepared in 40% (w/v) hydroxypropyl-beta-cyclodextrin. After dosing, animals were immediately put back into the recording boxes, the experimenter left the room, and recordings continued uninterrupted for 23 hours. At the end of the recording session, the transmitters were turned off and the animals were returned to their home cages. All animals received all treatment conditions in a pseudo randomized cross-over fashion with a minimum washout period of 7 days between doses.\nAll data was aligned to zero (the time of dosing), with epochs defined as non-overlapping 10-second time segments. […]"}, "5-HT2A (rat)": {"biological_target": "5-HT2A (rat) (Rattus norvegicus, UniProt P14842)", "sequence (P14842 whole entry)": "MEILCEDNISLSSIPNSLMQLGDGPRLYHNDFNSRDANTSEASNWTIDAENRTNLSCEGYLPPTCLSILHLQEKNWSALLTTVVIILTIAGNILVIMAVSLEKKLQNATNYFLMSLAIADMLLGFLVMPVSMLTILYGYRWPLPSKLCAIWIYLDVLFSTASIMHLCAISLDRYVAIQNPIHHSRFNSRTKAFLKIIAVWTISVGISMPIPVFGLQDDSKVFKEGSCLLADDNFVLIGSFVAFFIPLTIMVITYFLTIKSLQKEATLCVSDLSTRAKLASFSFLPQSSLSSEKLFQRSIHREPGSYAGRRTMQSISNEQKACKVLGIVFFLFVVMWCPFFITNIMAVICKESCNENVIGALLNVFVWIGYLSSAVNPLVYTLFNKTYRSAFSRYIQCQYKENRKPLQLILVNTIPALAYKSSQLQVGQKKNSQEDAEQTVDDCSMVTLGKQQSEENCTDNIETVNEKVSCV", "assay": "IPOne, rat 5-HT2A", "type": "cell-based", "settings": "for Emax / 5-HT2A/5-HT2B Selectivity (rat): IPOne; for Emax: rat 5-HT2A, read-out: Emax (% α-Me-5-HT); for 5-HT2A/5-HT2B Selectivity (rat): rat receptors", "text": "(§1) Overall, in vitro activity at rodent 5-HT2A and 5-HT2B receptors is consistent with the human receptor results, with compound 2-1 acting as a potent and selective 5-HT2A agonist.\n(§2) Overall, in vitro activity at rodent 5-HT2A and […] receptors is consistent with the human receptor results, with compound 2-2 acting as a potent and selective 5-HT2A agonist. In Table 5, ND indicates not determined."}, "5-HT1A": {"biological_target": "T1, 5-HT1A (Homo sapiens, UniProt P08908)", "T1 construct": "expressed in transfected cells", "T1 sequence (P08908 1-422)": "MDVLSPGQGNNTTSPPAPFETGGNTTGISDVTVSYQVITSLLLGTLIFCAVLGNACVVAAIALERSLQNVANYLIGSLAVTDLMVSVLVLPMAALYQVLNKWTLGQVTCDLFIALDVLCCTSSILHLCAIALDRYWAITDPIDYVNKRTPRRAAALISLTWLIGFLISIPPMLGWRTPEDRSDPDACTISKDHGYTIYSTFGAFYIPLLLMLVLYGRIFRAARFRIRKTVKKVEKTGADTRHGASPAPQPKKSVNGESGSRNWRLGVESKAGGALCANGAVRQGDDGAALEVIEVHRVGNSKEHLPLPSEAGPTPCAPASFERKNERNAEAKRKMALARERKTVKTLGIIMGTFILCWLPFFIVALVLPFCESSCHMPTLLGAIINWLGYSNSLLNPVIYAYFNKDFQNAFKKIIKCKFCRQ", "assay": "cAMP, 5-HT1A", "type": "cell-based", "experimental": "(§3) In vitro pharmacology studies were performed to evaluate the effects of compound 2-1 on functional activity of several 5-HT receptors using recombinant target overexpression cell culture systems. The effect of compound 2-1 on G protein-dependent signaling was investigated at 5-HT2A, 5-HT2B, and 5-HT2C receptors with calcium mobilization and IPOne assays; and at 5-HT1A, 5-HT1B, 5-HT1F, 5-HT5A, and 5-HT7D receptors with a cAMP assay. G protein-independent signaling was investigated at the 5-HT2A receptor with a β-Arrestin assay.\n(§4) In vitro pharmacology studies were performed to evaluate the effects of compound 2-2 on functional activity at several 5-HT receptors using recombinant target overexpression cell culture systems. The effect of compound 2-2 on G protein-dependent signaling was investigated at 5-HT2A, 5-HT2B, and 5-HT2C receptors with calcium mobilization and IPOne assays; and at 5-HT1A, 5-HT1B, 5-HT1F, 5-HT5A, and 5-HT7D receptors with a cAMP assay. G protein-independent signaling was investigated at the 5-HT2A receptor with a β-arrestin assay. […] In Table 4, 5-HT receptor selectivity was calculated using ΔΔlog(Emax/EC50). Assay reference α-Me-5-HT or 5-HT was used for normalization at each receptor (5-HT2A/5-HT2B selectivity=1; 5-HT2A/5-HT2C selectivity=1). ND in Table 4 indicates, not determined, plateau was not reached within the concentration range tested to determine Emax."}, "5-HT2B": {"biological_target": "T2, 5-HT2B (Homo sapiens, UniProt P41595)", "T2 construct": "expressed in transfected cells", "T2 sequence (P41595 whole entry)": "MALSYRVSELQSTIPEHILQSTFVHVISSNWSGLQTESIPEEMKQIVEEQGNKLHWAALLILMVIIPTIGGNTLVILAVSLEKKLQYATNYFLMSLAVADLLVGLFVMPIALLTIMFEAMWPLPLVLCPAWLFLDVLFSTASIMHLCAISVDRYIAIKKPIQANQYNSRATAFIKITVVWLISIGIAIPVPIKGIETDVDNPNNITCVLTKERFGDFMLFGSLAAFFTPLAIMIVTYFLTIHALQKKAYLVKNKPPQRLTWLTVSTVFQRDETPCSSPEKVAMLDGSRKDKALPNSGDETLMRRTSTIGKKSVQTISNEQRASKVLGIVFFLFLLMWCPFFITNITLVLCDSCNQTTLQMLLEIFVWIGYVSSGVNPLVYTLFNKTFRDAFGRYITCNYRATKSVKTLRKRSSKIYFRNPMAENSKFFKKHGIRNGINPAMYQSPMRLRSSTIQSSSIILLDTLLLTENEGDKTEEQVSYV", "assay": "IPOne, 5-HT2B", "type": "cell-based", "settings": "for Emax: IPOne, human 5-HT2B, read-out: Emax (% α-Me-5-HT)", "experimental": "as §3, §4"}, "5-HT2B (rat)": {"biological_target": "5-HT2B (rat) (Rattus norvegicus, UniProt P30994)", "sequence (P30994 whole entry)": "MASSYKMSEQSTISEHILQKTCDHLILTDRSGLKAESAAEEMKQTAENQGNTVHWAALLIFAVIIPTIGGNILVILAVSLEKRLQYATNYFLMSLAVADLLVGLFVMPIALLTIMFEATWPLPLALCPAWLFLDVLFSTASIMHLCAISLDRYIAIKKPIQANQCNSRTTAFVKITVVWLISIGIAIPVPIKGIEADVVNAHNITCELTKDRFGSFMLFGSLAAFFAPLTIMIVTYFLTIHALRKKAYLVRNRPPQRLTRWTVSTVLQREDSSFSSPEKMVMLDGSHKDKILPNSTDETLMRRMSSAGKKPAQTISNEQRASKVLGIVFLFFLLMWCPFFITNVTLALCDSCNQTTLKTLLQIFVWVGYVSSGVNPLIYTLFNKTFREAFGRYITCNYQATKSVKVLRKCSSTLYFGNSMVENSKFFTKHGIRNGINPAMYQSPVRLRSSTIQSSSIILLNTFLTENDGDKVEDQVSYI", "assay": "IPOne, rat 5-HT2B", "type": "cell-based", "text": "as §1, §2"}, "[1]": {"settings": "male WKY rats, IP, initial 4 hours following dosing"}, "[2]": {"settings": "over 6 hours post dose, WKY rats, IP"}}, "note": "pEC50: −log10 of the molar value."}
{"smiles": "COc1ccc(OC)c(CCNCc2cc(C)cc(Cl)c2)c1", "note": "[Compound 2-1, N-(3-chloro-5-methylbenzyl)-2-(2,5-dimethoxyphenyl)ethan-1-amine]", "values": [{"measurement": "non-REM sleep amount vs vehicle", "setting": "Male WKY rats; 3 mg/kg i.p., interval starting at 5 hours post dose", "value": "significantly increased"}, {"measurement": "latency to non-REM (NREM) sleep vs vehicle", "setting": "Male WKY rats; 10 mg/kg i.p.", "value": "significantly increased"}, {"measurement": "persistence of significant effect on delta power during non-REM sleep", "setting": "Male WKY rats; 30 mg/kg i.p.", "value": "persisted through the period starting at 4 hours post dose"}, {"measurement": "high gamma power during waking", "setting": "Male WKY rats; 30 mg/kg i.p., over 24 hours post dose", "value": "significant and lasting decrease"}, {"measurement": "amount of time spent in wake vs vehicle", "setting": "Male WKY rats; 3, 10 and 30 mg/kg i.p.", "value": "significantly increased"}, {"measurement": "amount of time spent in non-REM sleep vs vehicle", "setting": "Male WKY rats; 3, 10 and 30 mg/kg i.p., first 3 hours after administration", "value": "significantly decreased"}, {"measurement": "low frequency (delta and theta) power during non-REM sleep", "setting": "Male WKY rats; 3, 10 and 30 mg/kg i.p., post-dose period 0-2 hours", "value": "significantly decreased"}, {"measurement": "latency to REM sleep vs vehicle", "setting": "Male WKY rats; 10 and 30 mg/kg i.p.", "value": "significantly increased"}, {"measurement": "amount of time spent in REM sleep vs vehicle", "setting": "Male WKY rats; 10 and 30 mg/kg i.p., starting in the third hour post dose", "value": "significantly decreased"}, {"measurement": "waking high gamma power", "setting": "Male WKY rats; [1]", "value": "decreased"}, {"measurement": "waking theta and beta power", "setting": "Male WKY rats; [1]", "value": "significantly increased"}, {"measurement": "body temperature", "setting": "Male WKY rats; [2]", "value": "↓ (for 6 h)"}, {"measurement": "pEC50", "setting": "5-HT2A (rat)", "value": 8.51}, {"measurement": "Emax", "setting": "5-HT2A (rat)", "value": 99.5, "unit": "%"}, {"measurement": "5-HT2A/5-HT2B Selectivity (rat)", "setting": "5-HT2A (rat)", "value": ">100000"}, {"measurement": "agonist activity (in words)", "setting": "5-HT2A (rat); rat 5-HT2A receptor", "value": "full agonist activity"}, {"measurement": "pEC50", "setting": "5-HT1A", "value": "< 4.70"}, {"measurement": "pEC50", "setting": "5-HT2B", "value": 7.46}, {"measurement": "Emax", "setting": "5-HT2B", "value": 77.6, "unit": "%"}, {"measurement": "agonist activity (in words)", "setting": "5-HT2B; human 5-HT2B receptor", "value": "full agonist activity"}, {"measurement": "pEC50", "setting": "5-HT2B (rat)", "value": "< 6.00"}, {"measurement": "agonist activity (in words)", "setting": "5-HT2B (rat); rat 5-HT2B receptor", "value": "inactive"}]}
{"smiles": "COc1ccc(OC)c(CCNCc2cc(C)cc(F)c2)c1", "note": "[Compound 2-2, 2-(2,5-dimethoxyphenyl)-N-(3-fluoro-5-methylbenzyl)ethan-1-amine]", "values": [{"measurement": "effects on body temperature and locomotor activity", "setting": "Male WKY rats; male WKY rats", "value": "minimal effects"}, {"measurement": "Locomotor activity", "setting": "Male WKY rats; [2]", "value": "No Δ (No significant change)"}, {"measurement": "pEC50", "setting": "5-HT2A (rat)", "value": 8.14}, {"measurement": "Emax", "setting": "5-HT2A (rat)", "value": 105, "unit": "%"}, {"measurement": "5-HT2A/5-HT2B Selectivity (rat)", "setting": "5-HT2A (rat)", "value": ">100000"}, {"measurement": "pEC50", "setting": "5-HT1A", "value": "< 6.00"}, {"measurement": "pEC50", "setting": "5-HT2B", "value": 7.09}, {"measurement": "Emax", "setting": "5-HT2B", "value": 49.3, "unit": "%"}, {"measurement": "pEC50", "setting": "5-HT2B (rat)", "value": "< 6.00"}]}
